Source: patent US20080274090A1, “REVERSAL OF INSULIN-DEPENDENT DIABETES BY ISLET-PRODUCING STEM CELLS, ISLET PROGENITOR CELLS AND ISLET-LIKE STRUCTURES” (UNIVERSITY OF FLORIDA RESEARCH FOUNDATION, INC., priority 2000, published 2008)
No end group written: not given here.

What was measured:
[1] = test system: IdIs derived from NOD/Uf pancreatic IPSCs; test: Insulin content and secretion of cultured IdIs upon glucose stimulation (insulin ELISA); format: cell-based, mouse; settings: for insulin release from IdIs by secretagogues: 10 mM arginine or 1 nM GLP-1 with 17.5 mM glucose, final 3 hours, lesser degree than nicotinamide
Method: To determine insulin secretion, 300 IdIs derived from NOD/Uf pancreatic IPSCs were cultured in vitro for 5 days in EHAA medium containing either 0.5% NMS or prediabetic NOD mouse serum with or without nicotinamide (1-10 mM). At the end of the culture period, cells were washed twice in Krebs ringer buffer (KRB) and stimulated with 17.5 mM glucose in KRB for 3 hours.
Three hundred IdIs (from culture flasks containing EHAA-0.5% NMS medium) were seeded in 24 well plates in 2 ml of EHAA medium containing 0.5% of NMS with or without nicotinamide (1-10 mM) for 5 days at 37° C. (5% CO2). For secretagogues, IdIs were cultured in EHAA-0.5% NMS medium for 5 days. Three hours prior to the end of the incubation period, medium was removed and IdIs gently washed twice with KRB. To stimulate insulin secretion, 17.5 mM glucose was added to wells in 1 ml of KRB, and incubated at 37° C. for 3 hrs. Following incubation, culture supernatants were stored at −70° C. until use. The IdIs in each well were then subjected to 1 ml of ice-cold acid-ethanol extraction overnight at 4° C., and cell-free extracts were neutralized with Tris base (400 mM final concentration) prior to storing at −70° C. until use. To test the effect of secretagogues, 10 mM arginine and 1 nM GLP-1 (Sigma Chemicals, St Louis, Mo.) were used for the final 3 hours incubation in KRB. The insulin in the supernatants and in the extract were determined using an insulin ELISA kit (Crystal Chemical Inc., Chicago, Ill.), with rat insulin standard for quantitation (supplied in the kit). Comparisons between groups were done using the one tailed t-test.

[2] = test system: human cell line (#H3); test: Differentiation of human IPSCs with nicotinamide and ECM (immunohistochemical staining); format: cell-based; settings: upon treatment with nicotinamide
Excerpt: Several lines were derived from human pancreatic ductal preparation provided by DRI (Miami, Fla.). […] Only about 2% of the cells express insulin (FIG. 16M). None of the cells express tyrosine hydroxylase (FIG. 16G).

[3] = test system: IPSC line #7; test: Expression of development/differentiation factors in IPSC line #7 under nicotinamide; format: cell-based, mouse
Method: Nicotinamide has also been determined to enhance expression of various factors involved in the development/differentiation of the pancreas. […] A differentially regulated expression of Ins I and II was also apparent: Ins I was expressed at lower concentrations of nicotinamide (1-20 mM), while Ins II was expressed at 20-40 mM nicotinamide. Glucagon expression was visible only at a low dose of nicotinamide (<10 mM), while amylase expression was maintained at all doses (0-40 mM) (data not shown).

Row | Molecule | insulin release from IdIs by secretagogues [1] | differentiation of IPCs to IdIs ([1]; in combination with epidermal growth factor or hepatocyte growth factor, data not shown) | insulin content of IdIs ([1]; nicotinamide 1-10 mM for 5 days, then 17.5 mM glucose 3 hours, versus glucose alone) | insulin secretion of IdIs ([1]; nicotinamide 1-10 mM for 5 days, then 17.5 mM glucose 3 hours, versus glucose alone, P<0.05) | cells expressing insulin [2] | cells expressing tyrosine hydroxylase [2] | expression of pancreatic products [2] | nicotinamide concentration at which Ins I was expressed ([3]; IPSC line #7) [mM] | nicotinamide concentration at which Ins II was expressed ([3]; IPSC line #7) [mM] | nicotinamide dose at which glucagon expression was visible ([3]; IPSC line #7, data not shown) [mM] | nicotinamide doses at which amylase expression was maintained ([3]; IPSC line #7, data not shown) [mM] | expression of development/differentiation factors ([3]; at different doses, data not shown)
1 | glucagon like peptide-1 (HAEGTFTSDVSSYLEGQAAKEFIAWLVKGR; ends and bridges not checked; UniProt P01275 98-127, looked up) [GLP-1, secretagogue stimulating β cells through elevation of cAMP and the protein kinase A pathway] | induced insulin release | – | – | – | – | – | – | – | – | – | – | –
2 | N=C(N)NCCC[C@H](N)C(=O)O [arginine] | induced insulin release | – | – | – | – | – | – | – | – | – | – | –
3 | NC(=O)c1cccnc1 [nicotinamide] | – | induced the differentiation of IPCs to IdIs | increased insulin content | significantly increased levels of insulin | about 2% | None | express glucagon (FIG. 16K), amylase (FIG. 16I), cytokeratin 7 (FIG. 16C), and cytokeratin 19 (FIG. 16E) | 1 to 20 | 20 to 40 | < 10 | 0 to 40 | enhancement of Isl-1, beta2/neuroD, IPF-1, Nkx 2.2 and 6.1
